In patent US10113189B2, “Isolation and characterization of a novel pythium omega 3 desaturase with specificity to all omega 6 fatty acids longer than 18 carbon chains” (priority 2006, dated 2018):

What was measured:
[1] = tested on: ω-3 desaturase from Pythium irregulare; type: cell-based, S. cerevisiae; conditions: for desaturation by ω-3 desaturase from Pythium (in words): expression in yeast, exogenously supplied ω-6 fatty acids; for Conversion (%) / Product (%): yeast transformant pYES2-O3; for Conversion (%): conversion of ω-6 substrate into the corresponding ω-3 product; for Product (%): ω-3 product (ALA, SDA, ETA, EPA, DHA) of the fed substrate, 100 μM, 16° C., 4 days, GC
Protocol: (§1) The plasmids containing the full length O3 genes in the yeast expression vector pYES2.1/V5-His-TOPO were transformed into yeast S. cerevisiae. The positive transformants were selected for uracil auxotrophy on DOB-U agar plates. To characterize the ω-3 desaturase enzyme activity, positive clones and the control (yeast with pYES2.1 vector) were cultured overnight in DOB-U liquid medium at 28° C. and then grown in induction medium (DOB-U+Gal+Raf) containing 100 μM of various exogenously supplied fatty acid substrates at 16° C. for 4 days. The whole yeast cells expressing Pythium ω-3 genes were harvested by centrifugation and washed twice with distilled water. Then the yeast cells were directly transmethylated with methanolic HCl (3N) at 80° C. for 1 hour. The resultant methyl esters were extracted with hexane and analyzed by gas chromatography (GC). GC was carried out as described in WO 2005/083053.

[2] = tested on: control yeast pYES2 (yeast with pYES2.1 vector); experiment: Production of ω-3 fatty acids from exogenous ω-6 fatty acids in the control yeast pYES2; type: cell-based, S. cerevisiae; conditions: ω-3 product (ALA, SDA, ETA, EPA, DHA) of the fed substrate, GC
Protocol: as §1

Row | Structure (SMILES) | desaturation by ω-3 desaturase from Pythium (in words) [1] | Conversion (%) [1] [%] | Product (%) [1] [%] | Product (%) [2] [%]
1 | CCCCC/C=C\C/C=C\C/C=C\CCCCCCC(=O)O [DGLA, dihomo-γ-linolenic acid] | desaturates | 9.65 | 1.90 | 0
2 | CCCCC/C=C\C/C=C\C/C=C\CCCCC(=O)O [GLA, γ-linolenic acid] | not able to desaturase | 0 | 0 | 0
3 | CCCCC/C=C\C/C=C\CCCCCCCC(=O)O [LA, linoleic acid] | not able to desaturase | 0 | 0 | 0
4 | CC/C=C\C/C=C\C/C=C\C/C=C\C/C=C\CCCCCC(=O)O [DPA, docosapentaenoic acid] | – | 2.01 | 0.20 | 0.03
